Data from ChEMBL document CHEMBL4393739, “Design, synthesis and anti-inflammatory evaluation of novel pyrrolo[2,3-d]pyrimidin derivatives as potent JAK inhibitors” (Bioorg Med Chem, 2019).
Calls of active or inactive are those of the source. The rule behind the calls is not given here.

Experiments:
[1] = biological target: Tyrosine-protein kinase JAK1 (Homo sapiens) (UniProt P23458); conditions: at 10 µM
RAW264.7 [2] = experiment: Antiinflammatory activity in LPS-induced mouse RAW264.7 cells assessed as protection against cell damage by measuring reduction in apoptotic body formation at 10 ug/ml cotreated with LPS measured after 18 hrs by light microscopy; type: functional, cell-based
RAW264.7 [3] = experiment: Antiinflammatory activity in LPS-induced mouse RAW264.7 cells assessed as protection against cell damage by measuring reduction in cell shrinking at 10 ug/ml cotreated with LPS measured after 18 hrs by light microscopy; type: functional, cell-based
RAW264.7 [4] = experiment: Antiinflammatory activity in LPS-induced mouse RAW264.7 cells assessed as protection against cell damage by measuring reduction in cell rounding at 10 ug/ml co-treated with LPS measured after 18 hrs by light microscopy; type: functional, cell-based
RAW264.7 [5] = experiment: Antiinflammatory activity in mouse RAW264.7 cells assessed as reduction in LPS-induced JAK2 expression by Western blot analysis; type: functional, cell-based
RAW264.7 [6] = experiment: Antiinflammatory activity in mouse RAW264.7 cells assessed as reduction in LPS-induced JAK1 expression by Western blot analysis; type: functional, cell-based
RAW264.7 [7] = experiment: Cytotoxicity against mouse RAW264.7 cells assessed as cell growth inhibition measured after 24 hrs by MTT assay; type: cell-based; conditions: for IC50: Mus musculus, RAW264.7, 24 h; for Activity: mouse, raw264.7, 24 h
RAW264.7 [8] = experiment: Antiinflammatory activity in mouse RAW264.7 cells assessed as reduction in LPS-induced upregulation of IL-1 beta expression by Western blot analysis; type: functional, cell-based
[9] = Solubility of the compound; type: physicochemical
RAW264.7 [10] = experiment: Antiinflammatory activity in LPS-induced mouse RAW264.7 cells assessed as reduction in NO generation by measuring NO level at 10 ug/ml measured after 18 hrs by Griess method; type: functional, cell-based
RAW264.7 [11] = experiment: Antiinflammatory activity in LPS-induced mouse RAW264.7 cells assessed as reduction in NO generation by measuring NO level at 5 ug/ml measured after 18 hrs by Griess method; type: functional, cell-based
RAW264.7 [12] = experiment: Antiinflammatory activity in LPS-induced mouse RAW264.7 cells assessed as reduction in NO generation by measuring NO level at 2.5 ug/ml measured after 18 hrs by Griess method; type: functional, cell-based

Sequence of Tyrosine-protein kinase JAK1 (Homo sapiens) (P23458 whole entry): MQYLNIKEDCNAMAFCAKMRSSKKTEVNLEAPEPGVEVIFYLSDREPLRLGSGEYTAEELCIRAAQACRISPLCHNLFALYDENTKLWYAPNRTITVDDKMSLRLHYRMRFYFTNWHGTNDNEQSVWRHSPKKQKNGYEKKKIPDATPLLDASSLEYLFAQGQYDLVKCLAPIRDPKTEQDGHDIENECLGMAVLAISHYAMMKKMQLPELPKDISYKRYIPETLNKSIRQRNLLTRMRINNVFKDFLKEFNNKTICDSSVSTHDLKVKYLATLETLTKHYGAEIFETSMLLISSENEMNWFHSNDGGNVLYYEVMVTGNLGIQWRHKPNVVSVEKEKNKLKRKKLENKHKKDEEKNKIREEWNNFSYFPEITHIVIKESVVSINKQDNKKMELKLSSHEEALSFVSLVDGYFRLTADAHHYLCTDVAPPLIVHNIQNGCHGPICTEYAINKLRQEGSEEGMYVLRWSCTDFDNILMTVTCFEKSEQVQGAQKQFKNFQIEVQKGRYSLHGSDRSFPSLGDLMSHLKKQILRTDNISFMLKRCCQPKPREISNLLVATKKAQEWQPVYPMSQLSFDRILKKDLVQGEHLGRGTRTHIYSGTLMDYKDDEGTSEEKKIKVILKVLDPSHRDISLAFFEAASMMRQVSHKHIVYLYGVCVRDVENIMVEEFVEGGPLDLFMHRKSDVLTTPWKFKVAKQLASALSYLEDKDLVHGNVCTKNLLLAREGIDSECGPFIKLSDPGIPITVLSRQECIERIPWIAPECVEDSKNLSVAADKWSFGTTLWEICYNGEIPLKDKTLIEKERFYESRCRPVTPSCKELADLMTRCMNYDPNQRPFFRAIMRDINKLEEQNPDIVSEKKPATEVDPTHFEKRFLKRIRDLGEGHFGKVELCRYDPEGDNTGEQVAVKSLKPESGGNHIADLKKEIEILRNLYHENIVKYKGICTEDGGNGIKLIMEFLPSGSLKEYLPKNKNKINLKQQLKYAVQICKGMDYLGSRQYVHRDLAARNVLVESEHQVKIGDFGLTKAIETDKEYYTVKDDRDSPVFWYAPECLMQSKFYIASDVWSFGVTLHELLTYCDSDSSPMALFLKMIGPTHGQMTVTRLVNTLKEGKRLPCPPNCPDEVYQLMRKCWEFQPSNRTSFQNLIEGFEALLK

Structure (SMILES)	inhibition [1] [%]	solubility [9]	other results
O=C(CN1CCOCC1)N1CCC(n2cc(-c3ncnc4[nH]ccc34)cn2)CC1	69.6	–	–
O=C(O)C1CCN(CC(=O)N2CCC(n3cc(-c4ncnc5[nH]ccc45)cn3)CC2)CC1	92.5	–	Activity (RAW264.7 [2]): Active; Activity (RAW264.7 [3]): Active; Activity (RAW264.7 [4]): Active; Activity (RAW264.7 [5]): Dose-dependent effect; Activity (RAW264.7 [6]): Dose-dependent effect; IC50 (RAW264.7 [7]): 80.9 µM; Activity (RAW264.7 [7]): Dose-dependent effect; Activity (RAW264.7 [8]): Active
O=S(=O)(c1ccc(Br)cc1)N1CCC(n2cc(-c3ncnc4[nH]ccc34)cn2)CC1	60.3	Insoluble	–
CCS(=O)(=O)N1CC(CC#N)(n2cc(-c3ncnc4[nH]ccc34)cn2)C1	–	–	Activity (RAW264.7 [10]): Active; Activity (RAW264.7 [11]): Active; Activity (RAW264.7 [12]): Active
O=C(CN1CCN(CCO)CC1)N1CCC(n2cc(-c3ncnc4[nH]ccc34)cn2)CC1	83	–	–
CC1CCN(CC(=O)N2CCC(n3cc(-c4ncnc5[nH]ccc45)cn3)CC2)CC1	90.3	–	Activity (RAW264.7 [10]): Active; Activity (RAW264.7 [2]): Active; Activity (RAW264.7 [11]): Active; Activity (RAW264.7 [3]): Active; Activity (RAW264.7 [4]): Active; Activity (RAW264.7 [5]): Dose-dependent effect; Activity (RAW264.7 [12]): Active; Activity (RAW264.7 [6]): Dose-dependent effect; IC50 (RAW264.7 [7]): 88.2 µM; Activity (RAW264.7 [7]): Dose-dependent effect; Activity (RAW264.7 [8]): Active
O=C(CN1CCCCC1)N1CCC(n2cc(-c3ncnc4[nH]ccc34)cn2)CC1	65.6	–	–
N#Cc1ccc(S(=O)(=O)N2CCC(n3cc(-c4ncnc5[nH]ccc45)cn3)CC2)cc1	72.5	Insoluble	–
CCS(=O)(=O)N1CCC(n2cc(-c3ncnc4[nH]ccc34)cn2)CC1	95.2	Insoluble	–
O=S(=O)(c1ccc(Cl)cc1)N1CCC(n2cc(-c3ncnc4[nH]ccc34)cn2)CC1	63.7	Insoluble	–
O=[N+]([O-])c1cccc(S(=O)(=O)N2CCC(n3cc(-c4ncnc5[nH]ccc45)cn3)CC2)c1	92.4	Insoluble	–
Cc1ccccc1S(=O)(=O)N1CCC(n2cc(-c3ncnc4[nH]ccc34)cn2)CC1	94.7	Insoluble	–
O=S(=O)(c1cccc(Br)c1)N1CCC(n2cc(-c3ncnc4[nH]ccc34)cn2)CC1	72.8	Insoluble	–
COc1ccc(S(=O)(=O)N2CCC(n3cc(-c4ncnc5[nH]ccc45)cn3)CC2)cc1	53.2	Insoluble	–
Cc1ccc(S(=O)(=O)N2CCC(n3cc(-c4ncnc5[nH]ccc45)cn3)CC2)cc1	92.4	Insoluble	–
CN1CCN(CC(=O)N2CCC(n3cc(-c4ncnc5[nH]ccc45)cn3)CC2)CC1	72.8	–	–
O=C(CN1CCCC1)N1CCC(n2cc(-c3ncnc4[nH]ccc34)cn2)CC1	55.1	–	–
CN(C)CC(=O)N1CCC(n2cc(-c3ncnc4[nH]ccc34)cn2)CC1	46.9	–	–
CCN(CC)CC(=O)N1CCC(n2cc(-c3ncnc4[nH]ccc34)cn2)CC1	38.6	–	–
O=[N+]([O-])c1ccc(S(=O)(=O)N2CCC(n3cc(-c4ncnc5[nH]ccc45)cn3)CC2)cc1	99.6	Insoluble	–
O=S(=O)(c1ccccc1)N1CCC(n2cc(-c3ncnc4[nH]ccc34)cn2)CC1	2.7	Insoluble	–
O=S(=O)(c1ccc(F)cc1)N1CCC(n2cc(-c3ncnc4[nH]ccc34)cn2)CC1	93.4	Insoluble	–
O=[N+]([O-])c1ccccc1S(=O)(=O)N1CCC(n2cc(-c3ncnc4[nH]ccc34)cn2)CC1	96.6	Insoluble	Activity (RAW264.7 [10]): Active; Activity (RAW264.7 [11]): Active; Activity (RAW264.7 [12]): Active
O=S(=O)(c1cc(F)cc(F)c1)N1CCC(n2cc(-c3ncnc4[nH]ccc34)cn2)CC1	93.6	Insoluble	–
CS(=O)(=O)N1CCC(n2cc(-c3ncnc4[nH]ccc34)cn2)CC1	22.1	Insoluble	–
O=S(=O)(C1CC1)N1CCC(n2cc(-c3ncnc4[nH]ccc34)cn2)CC1	59.4	Insoluble	–
